Here are results for 45 molecules from ChEMBL document CHEMBL4350974, “Synthesis and biological evaluation of methylpyrimidine-fused tricyclic diterpene analogs as novel oral anti-late-onset hypogonadism agents” (Eur J Med Chem, 2019).

The source made the active and inactive calls. The rule behind the calls is not given here.

In one data set the test system is TM3. The data set can be described thus: Induction of testosterone production in mouse TM3 cells assessed as increase in testosterone level at 20 uM measured after 24 hrs by ELISA relative to control. The format is functional. For orientation: ELISA stands for enzyme-linked immunosorbent assay.
A short description of data set [1]: Cytotoxicity against mouse TM3 cells assessed as reduction in cell viability measured after 24 hrs by sulforhodamine B assay. In kind it is cell-based. Background: The SRB assay estimates cell density from bound dye.
For data set [2], the system named is Rattus norvegicus. The data set can be described thus: Anti late-onset hypogonadism activity in cyclophosphamide-induced Sprague-Dawley rat model of partial androgen deficiency assessed as intratesticular testosterone level at 10 mg/kg, sc administered for every 3 days up to 4 weeks ELISA (reference value: 137.99 +/- 19.27 nmol/L). In kind it is functional.
The test system of data set [3] is Rattus norvegicus. The data set can be described thus: Anti late-onset hypogonadism activity in cyclophosphamide-induced Sprague-Dawley rat model of partial androgen deficiency assessed as increase in free testosterone level at 10 mg/kg, sc administered for every 3 days up to 4 weeks and measured every 2 weeks by ELISA. In kind it is functional, organism-based.

Data set [4] has as its system Rattus norvegicus. The data set can be described thus: Anti late-onset hypogonadism activity in cyclophosphamide-induced Sprague-Dawley rat model of partial androgen deficiency assessed as increase in serum total testosterone level at 10 mg/kg, sc administered for every 3 days up to 4 weeks and measured every 2 weeks by ELISA. The format is functional, organism-based.

Data set [5] is described as follows: Toxicity in cyclophosphamide-induced Sprague-Dawley rat model of partial androgen deficiency assessed as decrease in body weight at 10 mg/kg, sc administered for every 3 days up to 4 weeks and measured every 3 days. The format is organism-based. The following applies: in vivo.
Data set [6] has as its system Rattus norvegicus. The data set can be described thus: Anti late-onset hypogonadism activity in cyclophosphamide-induced Sprague-Dawley rat model of partial androgen deficiency assessed as inhibition of Leydig cells apoptosis at 10 mg/kg, sc administered for every 3 days up to 4 weeks by DAPI staining based TUNEL assay. In kind it is functional, organism-based.
Data set [7] is filed under the species Rattus norvegicus. The data set can be described thus: Potency index, ratio of test compound effect to testosterone effect for anti late-onset hypogonadism activity in cyclophosphamide-induced Sprague-Dawley rat model of partial androgen deficiency assessed as inhibition of Leydig cells apoptosis. In kind it is functional.
The subject of data set [8] is Rattus norvegicus. Put plainly: Anti late-onset hypogonadism activity in cyclophosphamide-induced Sprague-Dawley rat model of partial androgen deficiency assessed as weight of testis at 10 mg/kg, sc administered for every 3 days for 4 weeks (reference value: 1.47 +/- 0.13 g). In kind it is functional.
Data set [9] concerns Rattus norvegicus. The data set can be described thus: Anti late-onset hypogonadism activity in cyclophosphamide-induced Sprague-Dawley rat model of partial androgen deficiency assessed as weight of seminal vesicles at 10 mg/kg, sc administered for every 3 days for 4 weeks Rvb = 1.33 +/- 0.26 g). In kind it is functional.
The nature of data set [10]: Toxicity in cyclophosphamide - induced Sprague-Dawley rat model of partial androgen deficiency assessed as sperm viability by semen analysis (reference value: 95.1 +/- 3.2 %).
Data set [11] is described as follows: Toxicity in cyclophosphamide - induced Sprague-Dawley rat model of partial androgen deficiency assessed as sperm motility by semen analysis (reference value: 88.3 +/- 7.3 %). The following applies: in vivo.

For orientation: CC50 means the concentration at which the toxic effect on the cells reaches its halfway point. Take `COc1ccc2c(c1)[C@@]1(C)Cc3nccnc3C(C)(C)C1CC2` (some centres not stated): the Activity in the data set on TM3 is recorded as 134%. Further, in [1], the CC50 at 24 h was 71.3 µM.

As to `COc1ccc2c(c1)[C@@]1(C)Cc3c([nH]c4ccccc34)C(C)(C)C1CC2` (some centres not stated), the Activity with TM3 is on record as 183.4%. Moreover, the CC50 at 24 h in data set [1] is < 50 µM.

For the molecule `COc1ccc2c(c1)[C@@]1(C)Cc3c(n[nH]c3C(=O)O)C(C)(C)C1CC2` (some centres not stated), the Activity with TM3 worked out at 128.2%. Further, in data set [1], the CC50 at 24 h was > 200 µM.

In the case of `COc1ccc2c(c1)[C@@]1(C)Cc3sc(N)nc3C(C)(C)C1CC2` (some centres not stated), the Activity in the data set with TM3 is 110.9%. For the same molecule, in data set [1], the CC50 at 24 h was < 50 µM.

On to `COc1ccc2c(c1)[C@@]1(C)Cc3c[nH]nc3C(C)(C)C1CC2` (some centres not stated), for which the Activity in the data set on TM3 is recorded as 116.6%. In addition, the CC50 at 24 h in [1] is < 50 µM.

As for `CCOC(=O)c1[nH]nc2c1C[C@]1(C)c3cc(OC)ccc3CCC1C2(C)C` (some centres not stated), in the data set with TM3, the Activity is on record as 160.9%. Further, in [1], the half-maximal cytotoxic concentration (CC50) at 24 h was < 50 µM.

With `COc1cc2c(cc1C(N)=O)CCC1C(C)(C)c3nc(C)ncc3C[C@]21C` (mixture of isomers), the Activity in the data set with TM3 amounted to 169.8%. Further, the CC50 at 24 h in [1] was > 200 µM.

For `C=CCNC(=O)c1cc2c(cc1OC)[C@@]1(C)Cc3cnc(C)nc3C(C)(C)C1CC2` (mixture of isomers), the Activity in the data set with TM3 is 142.9%.

`C#CCOc1ccc2c(c1)[C@@]1(C)Cc3cnc(C)nc3C(C)(C)C1CC2` (mixture of isomers): the Activity in the data set with TM3 was found to be 120.5%.

As for `CCc1ccc(NC(=O)c2cc3c(cc2OC)[C@@]2(C)Cc4cnc(C)nc4C(C)(C)C2CC3)cc1` (mixture of isomers), the Activity with TM3 was 167.8%. Besides, the CC50 at 24 h in data set [1] was < 50 µM.

With `COc1cc2c(cc1C(=O)NN1CCCCC1)CCC1C(C)(C)c3nc(C)ncc3C[C@]21C` (mixture of isomers), the Activity in the data set on TM3 stood at 111.5%.

Take `COc1ccc2c(c1)[C@@]1(C)Cc3cnc(C)nc3C(C)(C)C1C/C2=N/O` (mixture of isomers): the Activity with TM3 is on record as 128.5%.

Turning to `CCCNC(=O)c1cc2c(cc1OC)[C@@]1(C)Cc3cnc(C)nc3C(C)(C)C1CC2` (mixture of isomers), the Activity with TM3 was determined as 140.9%.

Take `COc1cccc(NC(=O)c2cc3c(cc2OC)[C@@]2(C)Cc4cnc(C)nc4C(C)(C)C2CC3)c1` (mixture of isomers): the Activity in the data set with TM3 was found to be 173.6%. The CC50 at 24 h in [1] is < 50 µM.

For `COc1ccc2c(c1)[C@@]1(C)Cc3cnc(C)nc3C(C)(C)C1C=C2` (mixture of isomers), the Activity in the data set on TM3 was found to be 129.8%.

On to `Cc1ncc2c(n1)C(C)(C)C1CCc3ccc(OCc4ccccc4)cc3[C@@]1(C)C2` (mixture of isomers), for which, in the data set with TM3, the Activity was 133%.

Consider `COc1cc2c(cc1NC(C)=O)CCC1C(C)(C)c3nc(C)ncc3C[C@]21C` (mixture of isomers), for which the Activity in the data set with TM3 is listed as 157.6%. Moreover, the CC50 at 24 h in data set [1] is > 200 µM.

`COc1ccc2c(c1)[C@@]1(C)Cc3cnc(C)nc3C(C)(C)C1CC2=O` (mixture of isomers): the Activity with TM3 worked out at 109.9%.

In the case of `COc1cc2c(cc1C(=O)O)CCC1C(C)(C)c3nc(C)ncc3C[C@]21C` (mixture of isomers), in the data set with TM3, the Activity was 121.2%.

For `COc1cc2c(cc1C(=O)Nc1ccc3[nH]ncc3c1)CCC1C(C)(C)c3nc(C)ncc3C[C@]21C` (mixture of isomers), the Activity in the data set with TM3 is reported as 181.5%. Further, in data set [1], the half-maximal cytotoxic concentration (CC50) at 24 h is < 50 µM.

Turning to `Cc1ncc2c(n1)C(C)(C)C1CCc3ccc(OCc4cccc([N+](=O)[O-])c4)cc3[C@@]1(C)C2` (mixture of isomers), the Activity in the data set on TM3 is given as 122.4%.

Turning to `COc1ccc2c(c1)[C@@]1(C)Cc3cnc(C)nc3C(C)(C)C1CC2` (mixture of isomers), in the data set with TM3, the Activity was determined as 145%. Also, in data set [1], the 50% cytotoxic concentration (CC50) at 24 h is 151 µM.

With `CCNC(=O)c1cc2c(cc1OC)[C@@]1(C)Cc3cnc(C)nc3C(C)(C)C1CC2` (mixture of isomers), the Activity with TM3 was 141.3%.

As for `COc1cc2c(cc1C(=O)NO)CCC1C(C)(C)c3nc(C)ncc3C[C@]21C` (mixture of isomers), in the data set on TM3, the Activity turned out to be 189.5%. Besides, in data set [1], the cytotoxic concentration (CC50) at 24 h came out at 82.2 µM.

As for `Cc1ncc2c(n1)C(C)(C)C1CCc3ccc(O)cc3[C@@]1(C)C2` (mixture of isomers), the Activity in the data set on TM3 is recorded as 124.4%.

Regarding `COc1cc2c(cc1C(=O)Nc1nccs1)CCC1C(C)(C)c3nc(C)ncc3C[C@]21C` (mixture of isomers), in the data set on TM3, the Activity was determined as 134.1%.

For `C#CCNC(=O)c1cc2c(cc1OC)[C@@]1(C)Cc3cnc(C)nc3C(C)(C)C1CC2` (mixture of isomers), in the data set with TM3, the Activity is 118.1%.

As for `CCCOc1ccc2c(c1)[C@@]1(C)Cc3cnc(C)nc3C(C)(C)C1CC2` (mixture of isomers), the Activity in the data set with TM3 stood at 113.2%.

Consider `CCCCCNC(=O)c1cc2c(cc1OC)[C@@]1(C)Cc3cnc(C)nc3C(C)(C)C1CC2` (mixture of isomers), for which, in the data set on TM3, the Activity was found to be 171.9%. Besides, in data set [1], the half-maximal cytotoxic concentration (CC50) at 24 h is < 50 µM.

Consider `COc1cc2c(cc1Br)CCC1C(C)(C)c3nc(C)ncc3C[C@]21C` (mixture of isomers), for which, in the data set on TM3, the Activity is recorded as 119.2%.

Take `COc1cc2c(cc1C(=O)NCC(C)C)CCC1C(C)(C)c3nc(C)ncc3C[C@]21C` (mixture of isomers): the Activity in the data set with TM3 is 114.7%.

For the molecule `CCCCNC(=O)c1cc2c(cc1OC)[C@@]1(C)Cc3cnc(C)nc3C(C)(C)C1CC2` (mixture of isomers), the Activity with TM3 worked out at 166.9%. In addition, in data set [1], the 50% cytotoxic concentration (CC50) at 24 h is < 50 µM.

In the case of `COc1cc2c(cc1C(=O)NN)CCC1C(C)(C)c3nc(C)ncc3C[C@]21C` (mixture of isomers), the Activity in the data set on TM3 was 130%. In addition, the CC50 at 24 h in data set [1] is > 200 µM.

Turning to `Cc1ncc2c(n1)C(C)(C)C1CCc3ccc(OC(C)C)cc3[C@@]1(C)C2` (mixture of isomers), the Activity with TM3 was 129.3%.

As for `CNCc1cc2c(cc1OC)[C@@]1(C)Cc3cnc(C)nc3C(C)(C)C1CC2` (mixture of isomers), in the data set on TM3, the Activity is 176.6%. Also, in data set [1], the CC50 at 24 h stood at 124 µM.

In the case of `COc1cc2c(cc1C(=O)NCc1cccc(Cl)c1)CCC1C(C)(C)c3nc(C)ncc3C[C@]21C` (mixture of isomers), the Activity in the data set on TM3 came to 164.2%. Also, the CC50 at 24 h in data set [1] was < 50 µM.

`COc1cc2c(cc1N)CCC1C(C)(C)c3nc(C)ncc3C[C@]21C.Cl` (mixture of isomers): in the data set with TM3, the Activity was found to be 146.6%. For the same molecule, the CC50 at 24 h in [1] worked out at 127 µM.

Regarding `COc1cc2c(cc1C(=O)N(C)C)CCC1C(C)(C)c3nc(C)ncc3C[C@]21C` (mixture of isomers), the Activity in the data set on TM3 came to 133.1%. For the same molecule, the CC50 at 24 h in [1] is > 200 µM.

Consider `COc1cc2c(cc1C(=O)N1CCc3ccccc31)CCC1C(C)(C)c3nc(C)ncc3C[C@]21C` (mixture of isomers), for which the Activity with TM3 was determined as 116.9%.

With `COc1cc2c(cc1C(=O)Nc1ccccc1)CCC1C(C)(C)c3nc(C)ncc3C[C@]21C` (mixture of isomers), the Activity in the data set with TM3 worked out at 156.8%. In addition, the CC50 at 24 h in [1] was < 50 µM.

Take `COc1cc2c(cc1C(=O)NC1CCCC1)CCC1C(C)(C)c3nc(C)ncc3C[C@]21C` (mixture of isomers): in the data set with TM3, the Activity is listed as 122.4%.

Take `COc1cc2c(cc1C(=O)Nc1ncco1)CCC1C(C)(C)c3nc(C)ncc3C[C@]21C` (mixture of isomers): the Activity in the data set with TM3 worked out at 176.9%. Moreover, the CC50 at 24 h in data set [1] is < 50 µM.

Consider `C=CCOc1ccc2c(c1)[C@@]1(C)Cc3cnc(C)nc3C(C)(C)C1CC2` (mixture of isomers), for which the Activity in the data set with TM3 worked out at 142%.

For `COc1ccc(-c2oc3c(CC=C(C)C)c(O[C@@H]4O[C@H](CO)[C@@H](O)[C@H](O)[C@H]4O)cc(O)c3c(=O)c2O[C@@H]2O[C@@H](C)[C@H](O)[C@@H](O)[C@H]2O)cc1` [ICARIIN], the Activity with TM3 is 139.6%. In addition, the 50% cytotoxic concentration (CC50) at 24 h in data set [1] was > 200 µM.

Regarding `C[C@]12CC[C@H]3[C@@H](CCC4=CC(=O)CC[C@@]43C)[C@@H]1CC[C@@H]2O` [TESTOSTERONE], the Activity with Rattus norvegicus [2] is listed as 145.38 nmol/L; in data set [5] it was “Non-Toxic”; with Rattus norvegicus [8] it was 1.53 g; in the data set on Rattus norvegicus [9], 1.64 g; in data set [10] it was 88.8%; in [11] it was 79.8%. In addition, the outcome in the data set on Rattus norvegicus [3] and in the data set on Rattus norvegicus [4] was Active. For the same molecule, the inhibition result in the data set with Rattus norvegicus [6] is “Active”. Besides, in the data set listed under Rattus norvegicus [7], the Ratio is 2.
